# Reference: patent US12678419B2, “Compounds” (Sitryx Therapeutics Limited, priority 2020, dated 2026)
# Key:
# [1] = tested on: IL-1β cytokine output from THP-1s; experiment: THP-1 AlphaLISA IL-1β cytokine assay; format: cell-based; conditions: Homo sapiens, LPS then nigericin, Table 1
# Method in brief: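 PMA-differentiated THP-1 cells (72 h) pre-incubated with compound for 30 min, LPS-stimulated for 24 h, then nigericin for 1 h, all at 37° C. IL-1β and IL-6 in supernatants measured by AlphaLISA. IC50 from concentration-response of % inhibition normalized to ±LPS controls.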
# [2] = tested on: IL-6 cytokine output from THP-1s; experiment: THP-1 AlphaLISA IL-6 cytokine assay; format: cell-based; conditions: Homo sapiens, LPS then nigericin, Table 1
# Method: The cytokine inhibition profiles of compounds of formula (I) were determined in a differentiated THP-1 cell assay. All assays were performed in RPMI-1640 growth medium (Gibco), supplemented with 10% fetal bovine serum (FBS; Gibco), 1% penicillin-streptomycin and 1% sodium pyruvate unless specified otherwise. The IL-1β and IL-6 cytokine inhibition assays were each run in a background of differentiated THP-1 cells as described below. All reagents described were from Sigma-Aldrich unless specified otherwise. Compounds were prepared as 10 mM DMSO stocks.
# THP-1 cells were expanded as a suspension up to 80% confluence in appropriate growth medium. Cells were harvested, suspended, and treated with an appropriate concentration of phorbol 12-myristate 13-acetate (PMA) over a 72 hr period (37° C./5% CO2).
# Following 72 hrs of THP-1 cell incubation, cellular medium was removed and replaced with fresh growth media containing 1% of FBS. Working concentrations of compounds were prepared separately in 10% FBS treated growth medium and pre-incubated with the cells for 30 minutes (37° C./5% CO2). Following the 30 minute compound pre-incubation, THP-1s were treated with an appropriate concentration of LPS and the THP-1s were subsequently incubated for a 24 hr period (37° C./5% CO2). An appropriate final concentration of Nigericin was then dispensed into the THP-1 plates and incubated for 1 hour (37° C./5% CO2) before THP-1 supernatants were harvested and collected in separate polypropylene 96-well holding plates.
# Reagents from each of the IL-1β and IL-6 commercial kits (Perkin Elmer) were prepared and run according to the manufacturer's instructions. Subsequently, fluorescence signal detection in a microplate reader was measured (EnVision® Multilabel Reader, Perkin Elmer).
# Percentage inhibition was calculated per cytokine by normalising the sample data to the high and low controls used within each plate (+/− LPS respectively). Percentage inhibition was then plotted against compound concentration and the 50% inhibitory concentration (IC50) was determined from the resultant concentration-response curve.
# [3] = tested on: NRF2 (nuclear factor erythroid 2-related factor 2); experiment: NRF2 +/-GSH activation assay (DiscoverX PathHunter NRF2 translocation kit, U2OS cells); format: cell-based; conditions: for Emax (%) +GSH / Emax (%) −GSH: normalised to dimethyl fumarate high control
# [4] = Hepatocyte stability assay, human; format: in vitro ADME; conditions: human, cryopreserved hepatocytes, 10 μM compound, read-out: T½
# Method in brief: (§1)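 Cryopreserved hepatocytes (viability >70%) at 0.5×10^6 cells/mL in Leibovitz buffer, compound 10 μM (0.1% DMSO) at 37° C. Samples at 0, 5, 10, 20, 40, 60 min quenched in acetonitrile and analysed by LC-MS/MS, with buffer-only incubations as control. Half-life and Clint (μL min^−1 10^−6 cells) from ln % remaining versus time.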
# [5] = tested on: human hepatocytes; experiment: Hepatocyte stability assay, human; format: in vitro ADME; conditions: 10 μM compound
# Method in brief: as §1
# [6] = Hepatocyte stability assay, mouse; format: in vitro ADME; conditions: mouse, cryopreserved hepatocytes, 10 μM compound, read-out: T½
# Method in brief: as §1
# [7] = tested on: mouse hepatocytes; experiment: Hepatocyte stability assay, mouse; format: in vitro ADME; conditions: 10 μM compound
# Method in brief: as §1
# [8] = THP-1, differentiated THP-1 cells
"IC50 [1, 8] [µM]","IC50 [2, 8] [µM]",EC50 ([3]; +GSH) [µM],EC50 ([3]; −GSH) [µM],half-life at 10 μM [4] [min],Clint (μL min^−1 10^−6 cells) [5] [μL min^−1 10^−6 cells],half-life at 10 μM [6] [min],Clint (μL min^−1 10^−6 cells) [7] [μL min^−1 10^−6 cells],SMILES,Emax (%) +GSH ([3]; +GSH) [%],Emax (%) −GSH ([3]; −GSH) [%],IC50 ([1]; differentiated THP-1 cells) [µM],IC50 ([2]; differentiated THP-1 cells) [µM]
7.9,3.2,4,5.6,35,37,3,483,"C=C(CC(=O)OC1(C)Cc2cc(Cl)c(Cl)cc2C1)C(=O)OCC(=O)O [Example 21, 2-((4-((5,6-dichloro-2-methyl-2,3-dihydro-1H-inden-2-yl)oxy)-2-methylene-4-oxobutanoyl)oxy)acetic acid]",55,151,–,–
7.9,3,7.7,4.1,166,9,< 3,>460,"C=C(CC(=O)OC1C(C)(C)c2cc(F)c(F)cc2C1(C)C)C(=O)OCC(=O)O [Example 26, 2-((4-((5,6-difluoro-1,1,3,3-tetramethyl-2,3-dihydro-1H-inden-2-yl)oxy)-2-methylene-4-oxobutanoyl)oxy)acetic acid]",145,216,–,–

# The next lines start with the molecule.
SMILES,"IC50 [1, 8] [µM]","IC50 [2, 8] [µM]",EC50 ([3]; +GSH) [µM],EC50 ([3]; −GSH) [µM],half-life at 10 μM [4] [min],Clint (μL min^−1 10^−6 cells) [5] [μL min^−1 10^−6 cells],half-life at 10 μM [6] [min],Clint (μL min^−1 10^−6 cells) [7] [μL min^−1 10^−6 cells],Emax (%) +GSH ([3]; +GSH) [%],Emax (%) −GSH ([3]; −GSH) [%],IC50 ([1]; differentiated THP-1 cells) [µM],IC50 ([2]; differentiated THP-1 cells) [µM]
"C=C(CC(=O)OC1Cc2ccc(Cl)cc2C1)C(=O)OCC(=O)O (centres unmarked) [Example 1, 2-((4-((5-chloro-2,3-dihydro-1H-inden-2-yl)oxy)-2-methylene-4-oxobutanoyl)oxy)acetic acid]",29.2,10.2,34.6,25.6,449,3,41,46,125,139,–,–
"C=C(CC(=O)OC1Cc2cc(Cl)c(Cl)cc2C1)C(=O)OCC(=O)O [Example 4, 2-((4-((5,6-dichloro-2,3-dihydro-1H-inden-2-yl)oxy)-2-methylene-4-oxobutanoyl)oxy)acetic acid]",12,4.6,16.5,7.5,119,13,16,83,182,196,–,–
"C=C(CC(=O)OC1(C)Cc2ccc(Cl)cc2C1)C(=O)OCC(=O)O (centres unmarked) [Example 7, 2-((4-((5-chloro-2-methyl-2,3-dihydro-1H-inden-2-yl)oxy)-2-methylene-4-oxobutanoyl)oxy)acetic acid]",–,–,22.3,14.5,86,17,10,142,135,155,> 31.6,8.2
